One assay concerns the target SUV39H2 (Homo sapiens (Human), UniProt Q9H5I1). Conditions: read-out: IC50 (μM) Suv 39H2 assay; enzyme assay.
The next assay deals with A549. As to the kind of experiment: Cell-based assay, anti-proliferative activity (Cell Counting Kit-8, 72 hours). The following applies: Homo sapiens, A549 cells, read-out: IC50 (μM) A549. The method, boiled down: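 Growth read-out after inhibitor treatment of plated cells; potency expressed as IC50.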
(In general: Tetrazolium assays rely on reduction of a dye to a coloured formazan, in cell work by metabolically active cells.)

A further assay has as its system PC14. The assay is described as above. Conditions: Homo sapiens, PC-14, PC14 cells, read-out: IC50 (μM) PC14. The method, boiled down:
(§1)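 CCK-8 viability read 72 h after compound exposure over an 8-point series from 1.5625 to 100 micro-M plus zero. Seeding density 2,000–3,000 cells/well; IC50 from the dilution series.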

For the next assay, the system named is HFL1. The description is as above. The following applies: Homo sapiens, HFL1 cells, read-out: IC50 (μM) HFL1. The essentials: as §1
For another assay, the system named is CCD-18Co. The assay is described as above. Conditions: Homo sapiens, CCD-18Co cells, read-out: IC50 (μM) CCD-18Co. The essentials:
as §1

Another assay relates to HCT-116. The assay is described as above. Conditions: Homo sapiens, HCT-116 cells, read-out: IC50 (μM) HCT-116. The essentials:
as §1

Structures can show the parent of a compound that is named as a salt. Where two headings read alike, the source gives them in different places.

Chain of SUV39H2 (Q9H5I1 whole entry): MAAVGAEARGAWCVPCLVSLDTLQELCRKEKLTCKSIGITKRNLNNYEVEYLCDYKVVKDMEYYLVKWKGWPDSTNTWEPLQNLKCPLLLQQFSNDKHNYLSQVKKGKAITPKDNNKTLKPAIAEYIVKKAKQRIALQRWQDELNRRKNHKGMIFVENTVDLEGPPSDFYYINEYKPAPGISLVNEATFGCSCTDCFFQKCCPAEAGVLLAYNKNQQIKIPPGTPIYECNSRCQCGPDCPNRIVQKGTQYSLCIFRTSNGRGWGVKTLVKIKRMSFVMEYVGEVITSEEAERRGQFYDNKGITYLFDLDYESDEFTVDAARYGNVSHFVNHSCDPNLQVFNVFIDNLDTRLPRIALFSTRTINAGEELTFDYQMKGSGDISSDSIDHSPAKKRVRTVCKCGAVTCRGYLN

For orientation: IC50 means the concentration that gives 50% inhibition. For `COc1cc(OCCCN(C)C)c(-c2cn3ccc(N4CCCN(S(=O)(=O)C5CC5)CC4)cc3n2)cc1Cl` [Example 212, 3-(4-chloro-2-(7-(4-(cyclopropylsulfonyl)-1,4-diazepan-1-yl)imidazo[1,2-a]-pyridin-2-yl)-5-methoxyphenoxy)-N,N-dimethylpropan-1-amine], the IC50 on SUV39H2 came out at 0.0161 µM; with A549 (Cell Counting Kit-8, 72 hours), 8.1 µM; in the assay on PC14 (Cell Counting Kit-8, 72 hours), 4.2 µM; in the assay on HFL1 (Cell Counting Kit-8, 72 hours), 5.8 µM; in the assay on CCD-18Co (Cell Counting Kit-8, 72 hours), 6 µM; in the assay on HCT-116 (Cell Counting Kit-8, 72 hours), 8.6 µM.
Turning to `COCCCN1CCN(c2ccn3cc(-c4cc(Cl)c(OC)cc4OC)nc3c2)CC1` [Example 96, 2-(5-chloro-2,4-dimethoxyphenyl)-7-(4-(3-methoxypropyl)piperazin-1-yl)imidazo[1,2-a]pyridine], the IC50 was 0.00833 µM at SUV39H2; 6.9 µM in the assay with A549 (Cell Counting Kit-8, 72 hours); 6.4 µM in the assay on PC14 (Cell Counting Kit-8, 72 hours); 8.4 µM with HFL1 (Cell Counting Kit-8, 72 hours); 6.8 µM in the assay on CCD-18Co (Cell Counting Kit-8, 72 hours); 9 µM in the assay with HCT-116 (Cell Counting Kit-8, 72 hours).
For `CCS(=O)(=O)N1CCCN(c2ccn3cc(-c4cc(Cl)c(OC)cc4OCCCN(C)C)nc3c2)CC1` [Example 215, 3-(4-chloro-2-(7-(4-(ethylsulfonyl)-1,4-diazepan-1-yl)imidazo[1,2-a]pyridin-2-yl)-5-methoxyphenoxy)-N,N-dimethylpropan-1-amine], the IC50 on SUV39H2 stood at 0.0135 µM; in the assay with A549 (72 hours, Cell Counting Kit-8), 10 µM; in the assay with PC14 (72 hours, Cell Counting Kit-8) it was 6.5 µM; in the assay on HFL1 (72 hours, Cell Counting Kit-8) it was 6.4 µM; with CCD-18Co (72 hours, Cell Counting Kit-8) it was 7.4 µM; in the assay on HCT-116 (72 hours, Cell Counting Kit-8), 10 µM.
As to `COc1cc(OC)c(-c2cn3ccc(N4CCN(S(=O)(=O)C5CC5)CC4)nc3n2)cc1Cl` [Example 146, 2-(5-chloro-2,4-dimethoxyphenyl)-7-[4-(cyclopropylsulfonyl)piperazin-1-yl]imidazo[1,2-a]pyrimidine], the IC50 stood at 0.0247 µM at SUV39H2; 0.49 µM in the assay with A549 (Cell Counting Kit-8, 72 hours); 0.24 µM in the assay on PC14 (Cell Counting Kit-8, 72 hours); 1.4 µM with HFL1 (Cell Counting Kit-8, 72 hours); 4.2 µM with CCD-18Co (Cell Counting Kit-8, 72 hours); 0.69 µM with HCT-116 (Cell Counting Kit-8, 72 hours).
Regarding `COc1cc(OC)c(-c2cn3ccc(N4CCN(CCN5CCNCC5)CC4)cc3n2)cc1Cl` [Example 142, 2-(5-chloro-2,4-dimethoxyphenyl)-7-(4-(2-(piperazin-1-yl)ethyl)piperazin-1-yl)imidazo-[1,2-a]pyridine], the IC50 on SUV39H2 is 0.00785 µM; with A549 (Cell Counting Kit-8, 72 hours), 6.6 µM; with PC14 (Cell Counting Kit-8, 72 hours) it was 8.7 µM; with HFL1 (Cell Counting Kit-8, 72 hours) it was 7.1 µM; in the assay on CCD-18Co (Cell Counting Kit-8, 72 hours) it was 7.8 µM; with HCT-116 (Cell Counting Kit-8, 72 hours), 8.2 µM.
As for `COc1cc(OC)c(-c2cn3ccc(N4CCN(Cc5ccncc5)CC4)cc3n2)cc1Cl` [Example 292, 2-(5-chloro-2,4-dimethoxyphenyl)-7-(4-(pyridin-4-ylmethyl)piperazin-1-yl)imidazo[1,2-a]pyridine], the IC50 stood at 0.00637 µM on SUV39H2; 1.2 µM with A549 (72 hours, Cell Counting Kit-8); 0.68 µM in the assay with PC14 (72 hours, Cell Counting Kit-8); 1.2 µM in the assay with HFL1 (72 hours, Cell Counting Kit-8); 1.3 µM in the assay with CCD-18Co (72 hours, Cell Counting Kit-8); 1.3 µM with HCT-116 (72 hours, Cell Counting Kit-8).
For the compound `COc1cc(OC)c(-c2cn3ccc(-c4ccc(C(=O)O)cc4)cc3n2)cc1Cl` [Example 246, 4-(2-(5-chloro-2,4-dimethoxyphenyl)imidazo[1,2-a]pyridin-7-yl)benzoic acid], the IC50 worked out at 0.0143 µM on SUV39H2; 10 µM with A549 (72 hours, Cell Counting Kit-8); 10 µM in the assay with PC14 (72 hours, Cell Counting Kit-8); 10 µM with HFL1 (72 hours, Cell Counting Kit-8); 10 µM in the assay on CCD-18Co (72 hours, Cell Counting Kit-8); 10 µM with HCT-116 (72 hours, Cell Counting Kit-8).
For `COc1cc(OC)c(-c2cn3ccc(N4CCCC4)cc3n2)cc1Cl` [Example 4, 2-(5-chloro-2,4-dimethoxyphenyl)-7-(pyrrolidin-1-yl)imidazo[1,2-a]pyridine hydrobromide], the IC50 at SUV39H2 was determined as 0.0031 µM; in the assay with A549 (Cell Counting Kit-8, 72 hours), 2 µM; in the assay on PC14 (Cell Counting Kit-8, 72 hours), 1.4 µM; in the assay with HFL1 (Cell Counting Kit-8, 72 hours), 1.4 µM; in the assay with CCD-18Co (Cell Counting Kit-8, 72 hours), 1.1 µM; in the assay with HCT-116 (Cell Counting Kit-8, 72 hours), 1.5 µM.
With `COc1cc(OC)c(-c2cn3ccc(N4CCN(S(=O)(=O)N(C)C)CC4)nc3n2)cc1Cl` [Example 180, 4-[2-(5-chloro-2,4-dimethoxyphenyl)imidazo[1,2-a]pyrimidin-7-yl]-N,N-dimethylpiperazine-1-sulfonamide], the IC50 was 0.0241 µM at SUV39H2; 1.1 µM in the assay with A549 (Cell Counting Kit-8, 72 hours); 1.6 µM with PC14 (Cell Counting Kit-8, 72 hours); 1.7 µM in the assay with HFL1 (Cell Counting Kit-8, 72 hours); 2.6 µM in the assay on CCD-18Co (Cell Counting Kit-8, 72 hours); 1.5 µM in the assay with HCT-116 (Cell Counting Kit-8, 72 hours).
Regarding `COc1cc(OC)c(-c2cn3ccc(NC(=O)[C@H](C)NC(=O)OC(C)(C)C)cc3n2)cc1Cl` [Example 253, (S)-tert-butyl (1-((2-(5-chloro-2,4-dimethoxyphenyl)imidazo[1,2-a]-pyridin-7-yl)amino)-1-oxopropan-2-yl)carbamate], the IC50 on SUV39H2 stood at 0.0582 µM; in the assay with A549 (72 hours, Cell Counting Kit-8), 10 µM; in the assay on PC14 (72 hours, Cell Counting Kit-8), 6.9 µM; in the assay with HFL1 (72 hours, Cell Counting Kit-8), 6.5 µM; with CCD-18Co (72 hours, Cell Counting Kit-8), 6.7 µM; in the assay on HCT-116 (72 hours, Cell Counting Kit-8), 10 µM.
Turning to `COc1cc(OC)c(-c2cn3ccc(N4CCCN(S(=O)(=O)C(F)(F)F)CC4)cc3n2)cc1Cl` [Example 188, 2-(5-chloro-2,4-dimethoxyphenyl)-7-{4-[(trifluoromethyl)sulfonyl]-1,4-diazepan-1-yl}imidazo[1,2-a]pyridine], the IC50 came to 0.0369 µM on SUV39H2; 1.6 µM in the assay on A549 (Cell Counting Kit-8, 72 hours); 1.6 µM in the assay on PC14 (Cell Counting Kit-8, 72 hours); 1.5 µM in the assay on HFL1 (Cell Counting Kit-8, 72 hours); 1.4 µM with CCD-18Co (Cell Counting Kit-8, 72 hours); 1.6 µM with HCT-116 (Cell Counting Kit-8, 72 hours).
For `COc1cc(OCSC)c(-c2cn3ccc(N4CCN(S(=O)(=O)C5CC5)CC4)cc3n2)cc1Cl` [Example 255, 2-(5-chloro-4-methoxy-2-((methylthio)methoxy)phenyl)-7-(4-(cyclopropylsulfonyl)piperazin-1-yl)imidazo[1,2-a]pyridine], the IC50 is 0.00672 µM on SUV39H2; 2.5 µM in the assay with A549 (72 hours, Cell Counting Kit-8); 1.5 µM in the assay with PC14 (72 hours, Cell Counting Kit-8); 1.7 µM with HFL1 (72 hours, Cell Counting Kit-8); 1.9 µM in the assay with CCD-18Co (72 hours, Cell Counting Kit-8); 2.3 µM with HCT-116 (72 hours, Cell Counting Kit-8).
`COc1cc(OC)c(-c2cn3ccc(N4CCN(S(=O)(=O)C5CC5)C(COCCN(C)C)C4)cc3n2)cc1Cl` (stereo not drawn) [Example 245, 2-((4-(2-(5-chloro-2,4-dimethoxyphenyl)imidazo[1,2-a]pyridin-7-yl)-1-(cyclopropylsulfonyl)piperazin-2-yl)methoxy)-N,N-dimethylethanamine]: the IC50 on SUV39H2 stood at 0.00863 µM; in the assay on A549 (72 hours, Cell Counting Kit-8), 5.5 µM; with PC14 (72 hours, Cell Counting Kit-8), 5.1 µM; with HFL1 (72 hours, Cell Counting Kit-8), 5.4 µM; in the assay with CCD-18Co (72 hours, Cell Counting Kit-8), 5 µM; with HCT-116 (72 hours, Cell Counting Kit-8), 9.4 µM.
For `COc1cc(OC)c(-c2cn3ccc(N4CCN(c5nccc(N)n5)CC4)cc3n2)cc1Cl` [Example 286, 2-(4-(2-(5-chloro-2,4-dimethoxyphenyl)imidazo[1,2-a]pyridin-7-yl)piperazin-1-yl)-pyrimidin-4-amine], the IC50 on SUV39H2 was 0.00881 µM; in the assay on A549 (72 hours, Cell Counting Kit-8), 0.65 µM; in the assay with PC14 (72 hours, Cell Counting Kit-8), 0.63 µM; in the assay on HFL1 (72 hours, Cell Counting Kit-8), 0.7 µM; in the assay with CCD-18Co (72 hours, Cell Counting Kit-8), 0.71 µM; with HCT-116 (72 hours, Cell Counting Kit-8), 0.56 µM.

(Values after US10508109B2 (priority 2015, dated 2019).)
